Reference: patent US7928107B2, “Quinazolines useful as modulators of ion channels” (Vertex Pharmaceuticals Incorporated, priority 2004, dated 2011)

target: NaV 1.8 channel (Homo sapiens, UniProt Q9Y5Y9); assay: Activity against NaV 1.8 channel (optical membrane potential assay); assay type: cell-based
Summary of the method: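 FRET membrane-potential assay (coumarin CC2-DMPE donor, oxonol DiSBAC2(3) acceptor plus veratridine) on VIPR; compound added with oxonol for 20–30 min before Na+ add-back stimulation. Activity from background-subtracted 460/580 nm ratio change (baseline 2–7 s, response 15–24 s) relative to tetracaine positive and drug-free negative controls.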

NaV 1.8 channel, sequence (Q9Y5Y9 whole entry): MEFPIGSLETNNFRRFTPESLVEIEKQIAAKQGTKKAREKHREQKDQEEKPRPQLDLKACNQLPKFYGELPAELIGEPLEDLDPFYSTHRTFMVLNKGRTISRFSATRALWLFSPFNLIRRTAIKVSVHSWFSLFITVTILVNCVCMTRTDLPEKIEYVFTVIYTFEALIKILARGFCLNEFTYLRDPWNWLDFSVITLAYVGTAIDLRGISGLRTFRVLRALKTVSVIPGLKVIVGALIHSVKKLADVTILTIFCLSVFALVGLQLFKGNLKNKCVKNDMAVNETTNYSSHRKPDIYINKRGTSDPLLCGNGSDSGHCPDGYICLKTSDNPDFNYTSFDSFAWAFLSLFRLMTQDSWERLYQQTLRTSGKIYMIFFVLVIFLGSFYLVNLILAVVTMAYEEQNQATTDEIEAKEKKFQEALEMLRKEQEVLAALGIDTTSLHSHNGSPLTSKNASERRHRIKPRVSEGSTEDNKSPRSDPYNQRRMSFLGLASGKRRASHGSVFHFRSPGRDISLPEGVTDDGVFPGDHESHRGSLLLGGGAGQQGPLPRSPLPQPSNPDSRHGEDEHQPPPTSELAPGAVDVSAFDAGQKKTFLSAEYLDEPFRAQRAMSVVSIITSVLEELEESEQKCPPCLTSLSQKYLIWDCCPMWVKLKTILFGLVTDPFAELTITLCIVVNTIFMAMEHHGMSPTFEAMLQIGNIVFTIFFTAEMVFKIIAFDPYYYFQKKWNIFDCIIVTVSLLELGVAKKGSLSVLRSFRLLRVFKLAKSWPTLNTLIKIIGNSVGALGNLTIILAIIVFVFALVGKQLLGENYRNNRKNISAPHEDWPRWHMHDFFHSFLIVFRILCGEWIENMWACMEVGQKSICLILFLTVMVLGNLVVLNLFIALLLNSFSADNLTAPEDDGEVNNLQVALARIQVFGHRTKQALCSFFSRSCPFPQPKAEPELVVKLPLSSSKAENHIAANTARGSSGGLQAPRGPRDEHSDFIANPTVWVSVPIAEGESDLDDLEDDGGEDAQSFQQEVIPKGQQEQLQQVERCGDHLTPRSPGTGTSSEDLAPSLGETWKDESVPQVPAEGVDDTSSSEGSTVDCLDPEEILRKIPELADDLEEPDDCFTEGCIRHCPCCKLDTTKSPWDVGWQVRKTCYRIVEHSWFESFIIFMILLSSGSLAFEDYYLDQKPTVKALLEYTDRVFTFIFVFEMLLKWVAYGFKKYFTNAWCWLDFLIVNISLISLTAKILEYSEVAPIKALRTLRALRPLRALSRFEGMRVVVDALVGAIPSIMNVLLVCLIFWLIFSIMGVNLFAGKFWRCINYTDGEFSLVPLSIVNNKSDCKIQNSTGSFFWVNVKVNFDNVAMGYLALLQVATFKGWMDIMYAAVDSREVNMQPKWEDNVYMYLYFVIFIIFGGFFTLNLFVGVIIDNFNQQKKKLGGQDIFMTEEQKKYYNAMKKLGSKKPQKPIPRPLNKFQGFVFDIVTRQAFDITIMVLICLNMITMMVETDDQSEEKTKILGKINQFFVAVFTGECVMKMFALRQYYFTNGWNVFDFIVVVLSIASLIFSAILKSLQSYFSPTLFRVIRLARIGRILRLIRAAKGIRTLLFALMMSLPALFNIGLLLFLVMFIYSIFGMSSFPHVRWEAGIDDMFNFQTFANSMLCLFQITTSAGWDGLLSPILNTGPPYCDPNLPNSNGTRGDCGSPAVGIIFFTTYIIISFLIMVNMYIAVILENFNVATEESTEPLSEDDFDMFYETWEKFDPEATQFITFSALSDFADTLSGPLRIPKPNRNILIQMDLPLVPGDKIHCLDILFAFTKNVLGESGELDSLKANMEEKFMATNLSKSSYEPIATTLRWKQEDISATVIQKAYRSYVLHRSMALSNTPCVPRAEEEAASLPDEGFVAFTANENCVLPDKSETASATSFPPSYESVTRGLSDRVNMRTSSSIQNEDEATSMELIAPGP

| Structure (SMILES) | IC50 [µM] |
| --- | --- |
| O=C(NC[C@@H]1CCN(c2nc(-c3ccccc3O)nc3ccc(F)cc23)C1)C1CC1 [Example 357, N—(((S)-1-(6-Fluoro-2-(2-hydroxyphenyl)quinazolin-4-yl)pyrrolidin-3-yl)methyl)cyclopropanecarboxamide] | > 10 |
| CC[C@H](O)C(=O)N1CCN(c2nc(-c3ccccc3O)nc3cc(C)ccc23)CC1 [Example 124, (S)-2-Hydroxy-1-(4-(2-(2-hydroxyphenyl)-7-methylquinazolin-4-yl)piperazin-1-yl)butan-1-one] | > 10 |
| O=C(N[C@@H]1CCN(c2nc(-c3ccccc3O)nc3ccc(F)cc23)C1)c1ccncc1 [Example 347, N—((R)-1-(6-Fluoro-2-(2-hydroxyphenyl)quinazolin-4-yl)pyrrolidin-3-yl)isonicotinamide] | > 10 |
| COCCOC(=O)NCC1CN(c2nc(-c3ccccc3O)nc3cc(C)ccc23)C1 [Example 419] | 2 to 10 |
| Cc1ccc2c(N3CCN(C(=O)O[C@@H]4CCOC4)CC3)nc(-c3ccccc3O)nc2c1 [Example 182] | 2 to 10 |
| Cc1ccc2c(N3CCN(C(=O)[C@H](O)CC(C)(C)C)CC3)nc(-c3c(O)cccc3F)nc2c1 [Example 135, (R)-1-(4-(2-(2-Fluoro-6-hydroxyphenyl)-7-methylquinazolin-4-yl)piperazin-1-yl)-2-hydroxy-4,4-dimethylpentan-1-one] | < 2 |
| COCCOC(=O)NC[C@@H]1CCN(c2nc(-c3ccccc3O)nc3ccc(F)cc23)C1 [Example 377, 2-Methoxyethyl ((S)-1-(6-fluoro-2-(2-hydroxyphenyl)quinazolin-4-yl)pyrrolidin-3-yl)methylcarbamate] | 2 to 10 |
| Cc1ccc2c(N3CCC[C@H](NC(=O)[C@H]4CCCO4)C3)nc(-c3ccccc3O)nc2c1 [Example 205, (2R)-Tetrahydro-N—((S)-1-(2-(2-hydroxyphenyl)-7-methylquinazolin-4-yl)piperidin-3-yl)furan-2-carboxamide] | > 10 |
| CC(=O)C[C@@H](O)C(=O)N1CCN(c2nc(-c3ccccc3O)nc3cc(C)ccc23)CC1 [Example 151, (R)-2-Hydroxy-1-(4-(2-(2-hydroxyphenyl)-7-methylquinazolin-4-yl)piperazin-1-yl)pentan-1,4-dione] | > 10 |
| CSCCC(O)C(=O)N1CCN(c2nc(-c3ccccc3O)nc3cc(C)ccc23)CC1 (centres unmarked) [Example 153, 2-Hydroxy-1-(4-(2-(2-hydroxyphenyl)-7-methylquinazolin-4-yl)piperazin-1-yl)-4-(methylthio)butan-1-one] | 2 to 10 |
| CC[C@H](O)C(=O)N1CCN(c2nc(-c3ccccc3O)nc3cc(C)ccc23)CC1 [Example 137, (S)-2-Hydroxy-1-(4-(2-(2-hydroxyphenyl)-7-methylquinazolin-4-yl)piperazin-1-yl)butan-1-one] | 2 to 10 |
| Cc1ccc2c(N3CC[C@@H](CNC(=O)C4CC4)C3)nc(-c3ccccc3O)nc2c1 [Example 311, N—(((S)-1-(2-(2-Hydroxyphenyl)-7-methylquinazolin-4-yl)pyrrolidin-3-yl)methyl)cyclopropanecarboxamide] | < 2 |
| Cc1ccc2c(N3CCC(NC(=O)C4CCOCC4)CC3)nc(-c3ccccc3O)nc2c1 [Example 220, Tetrahydro-N-(1-(2-(2-hydroxyphenyl)-7-methylquinazolin-4-yl)piperidin-4-yl)-2H-pyran-4-carboxamide] | > 10 |
| Cc1ccc2c(N3CCN(C(=O)C(C)(C)C)CC3)nc(-c3ccccc3O)nc2c1 [Example 196] | < 2 |
| Cc1ccc2c(N3CCCC(CNC(=O)OCC(C)C)C3)nc(-c3ccccc3O)nc2c1 (centres unmarked) [Example 250, Isobutyl (1-(2-(2-hydroxyphenyl)-7-methylquinazolin-4-yl)piperidin-3-yl)methylcarbamate] | < 2 |
| COCCOC(=O)NC[C@@H]1CCCN(c2nc(-c3c(O)cccc3F)nc3cc(C)ccc23)C1 [Example 261, 2-Methoxyethyl ((S)-1-(2-(2-fluoro-6-hydroxyphenyl)-7-methylquinazolin-4-yl)piperidin-3-yl)methylcarbamate] | 2 to 10 |
| Cc1ccc2c(N3CCN(C(=O)[C@H](O)CC(=O)N(C)C)CC3)nc(-c3ccccc3O)nc2c1 [Example 104, (R)-3-Hydroxy-4-(4-(2-(2-hydroxyphenyl)-7-methylquinazolin-4-yl)piperazin-1-yl)-N,N-dimethyl-4-oxobutanamide] | > 10 |
| Cc1ccc2c(N3CCN(C(=O)CCc4ccccn4)CC3)nc(-c3ccccc3O)nc2c1 [Example 133, 1-(4-(2-(2-Hydroxyphenyl)-7-methylquinazolin-4-yl)piperazin-1-yl)-3-(pyridin-2-yl)propan-1-one] | 2 to 10 |
| Cc1ccc2c(N3CC[C@@H](NC(=O)O[C@H]4CCOC4)C3)nc(-c3c(O)cccc3F)nc2c1 [Example 345, (S)-Tetrahydrofuran-3-yl (R)-1-(2-(2-fluoro-6-hydroxyphenyl)-7-methylquinazolin-4-yl)pyrrolidin-3-ylcarbamate] | 2 to 10 |

| Structure (SMILES) | IC50 [µM] |
| --- | --- |
| O=C(N[C@@H]1CCN(c2nc(-c3ccccc3O)nc3ccc(F)cc23)C1)c1ccccn1 [Example 348, N—((R)-1-(6-Fluoro-2-(2-hydroxyphenyl)quinazolin-4-yl)pyrrolidin-3-yl)picolinamide] | > 10 |
| Cc1ccc2c(N3CC[C@@H](NC(=O)C4CC4)C3)nc(-c3ccccc3O)nc2c1 [Example 312, (R)-Cyclopropanecarboxylic acid {1-[2-(2-hydroxy-phenyl)-7-methyl-quinazolin-4-yl]-pyrrolidin-3-yl}-amide] | 2 to 10 |
| Cc1ccc2c(N3CCC[C@@H](CNC(=O)OCC(C)C)C3)nc(-c3c(O)cccc3F)nc2c1 [Example 260, Isobutyl ((S)-1-(2-(2-fluoro-6-hydroxyphenyl)-7-methylquinazolin-4-yl)piperidin-3-yl)methylcarbamate] | < 2 |
| Cc1ccc2c(N3CCCC(CNC(=O)O[C@H]4CCOC4)C3)nc(-c3ccccc3O)nc2c1 (stereo partly drawn) [Example 211, (S)-Tetrahydrofuran-3-yl (1-(2-(2-hydroxyphenyl)-7-methylquinazolin-4-yl)piperidin-3-yl)methylcarbamate] | > 10 |
| Cc1ccc2c(N3CCC[C@@H](CNC(=O)O[C@H]4CCOC4)C3)nc(-c3ccccc3O)nc2c1 [Example 215, (S)-Tetrahydrofuran-3-yl ((S)-1-(2-(2-hydroxyphenyl)-7-methylquinazolin-4-yl)piperidin-3-yl)methylcarbamate] | > 10 |
| Cc1ccc2c(N3CCN(C(=O)OCC(C)C)CC3)nc(-c3c(C)cccc3O)nc2c1 [Example 193] | < 2 |
| Cc1ccc2c(N3CC[C@@H](CNC(=O)OCC(C)C)C3)nc(-c3c(O)cccc3F)nc2c1 [Example 372, Isobutyl ((S)-1-(2-(2-fluoro-6-hydroxyphenyl)-7-methylquinazolin-4-yl)pyrrolidin-3-yl)methylcarbamate] | < 2 |
| Cc1ccc2c(N3CCC[C@@H](NC(=O)O[C@H]4CCOC4)C3)nc(-c3ccccc3O)nc2c1 [Example 208, (S)-Tetrahydrofuran-3-yl (R)-1-(2-(2-hydroxyphenyl)-7-methylquinazolin-4-yl)piperidin-3-ylcarbamate] | < 2 |
| CCCC(O)C(=O)N1CCN(c2nc(-c3ccccc3O)nc3ccccc23)CC1 (centres unmarked) [Example 174, 2-Hydroxy-1-(4-(2-(2-hydroxyphenyl)quinazolin-4-yl)piperazin-1-yl)pentan-1-one] | 2 to 10 |
| CCOC(=O)NC[C@@H]1CCCN(c2nc(-c3ccccc3O)nc3cc(C)ccc23)C1 [Example 254, Ethyl((S)-1-(2-(2-hydroxyphenyl)-7-methylquinazolin-4-yl)piperidin-3-yl)methylcarbamate] | 2 to 10 |
| O=C(N[C@@H]1CCN(c2nc(-c3ccccc3O)nc3ccc(F)cc23)C1)OCC1CCCCO1 (stereo partly drawn) [Example 339, (Tetrahydro-2H-pyran-2-yl)methyl (R)-1-(6-fluoro-2-(2-hydroxyphenyl)quinazolin-4-yl)pyrrolidin-3-ylcarbamate] | 2 to 10 |
| Cc1ccc2c(N3CCN(C(=O)O[C@@H]4CCOC4)[C@@H](CO)C3)nc(-c3ccccc3O)nc2c1 [Example 149, (2R)-(R)-Tetrahydrofuran-3-yl 2-(hydroxymethyl)-4-(2-(2-hydroxyphenyl)-7-methylquinazolin-4-yl)piperazine-1-carboxylate] | > 10 |
| O=C(N[C@@H]1CCN(c2nc(-c3ccccc3O)nc3ccc(F)cc23)C1)C(O)c1ccc(F)cc1 (stereo partly drawn) [Example 358, N—((R)-1-(6-Fluoro-2-(2-hydroxyphenyl)quinazolin-4-yl)pyrrolidin-3-yl)-2-(4-fluorophenyl)-2-hydroxyacetamide] | > 10 |
| O=C(N[C@@H]1CCN(c2nc(-c3ccccc3O)nc3ccc(F)cc23)C1)O[C@H]1CCOC1 [Example 335, (S)-Tetrahydrofuran-3-yl (R)-1-(6-fluoro-2-(2-hydroxyphenyl)quinazolin-4-yl)pyrrolidin-3-ylcarbamate] | 2 to 10 |
| Cc1ccc2c(N3CC(CNC(=O)OCC(C)C)C3)nc(-c3ccccc3O)nc2c1 [Example 418] | 2 to 10 |
| Cc1ccc2c(N3CCN(C(=O)[C@H](O)CC(C)C)CC3)nc(-c3ccccc3O)nc2c1 [Example 168, (R)-2-Hydroxy-1-(4-(2-(2-hydroxyphenyl)-7-methylquinazolin-4-yl)piperazin-1-yl)-4-methylpentan-1-one] | 2 to 10 |
| Cc1ccc2c(N3CCN(C(=O)[C@H](O)CC(C)C)C[C@@H]3C(C)C)nc(-c3ccccc3O)nc2c1 [Example 155, (R)-2-Hydroxy-1-((S)-4-(2-(2-hydroxyphenyl)-7-methylquinazolin-4-yl)-3-isopropylpiperazin-1-yl)-4-methylpentan-1-one] | > 10 |
| Cc1ccc2c(N3CCC(NC(=O)[C@H]4CCCO4)CC3)nc(-c3ccccc3O)nc2c1 [Example 276, (R)-Tetrahydro-furan-2-carboxylic acid {1-[2-(2-hydroxy-phenyl)-7-methyl-quinazolin-4-yl]-piperidin-4-yl}-amide] | 2 to 10 |
| CC[C@@H](O)C(=O)N1CCN(c2nc(-c3ccccc3O)nc3ccccc23)CC1 [Example 118, (R)-2-Hydroxy-1-(4-(2-(2-hydroxyphenyl)quinazolin-4-yl)piperazin-1-yl)butan-1-one] | 2 to 10 |
